The results in this text go back to US12264173B2 (GILEAD SCIENCES, INC., priority 2020, dated 2025).

What all share (assay type): cell-based
In one experiment the target is HCV Rep 1B. The experiment in a line: HCV Rep 1B EC50 (replicon luciferase). On the procedure:
(§1) Compounds were serially diluted in ten steps of 1:3 dilutions in 384-well plates. All serial dilutions were performed in four replicates per compound within the same 384-well plate. […] To each well of a black polystyrene 384-well plate (Greiner Bio-one, Monroe, NC), 90 μL of cell culture medium (without Geneticin) containing 2000 suspended HCV replicon cells was added with a Biotek μFlow workstation. For compound transfer into cell culture plates, 0.4 μL of compound solution from the compound serial dilution plate was transferred to the cell culture plate on a Biomek FX workstation. The DMSO concentration in the final assay wells was 0.44%. The plates were incubated for 3 days at 37° C. with 5% CO2 and 85% humidity. The HCV replicon assay was a multiplex assay, able to assess both cytotoxicity and antireplicon activity from the same well. The CC50 assay was performed first. The media in the 384-well cell culture plate was aspirated, and the wells were washed four times with 100 μL of PBS each, using a Biotek ELX405 plate washer. A volume of 50 μL of a solution containing 400 nM calcein AM (Anaspec, Fremont, CA) in 1×PBS was added to each well of the plate with a Biotek μFlow workstation. The plate was incubated for 30 min at room temperature before the fluorescence signal (excitation 490 nm, emission 520 nm) was measured with a Perkin-Elmer Envision plate reader. The EC50 assay was performed in the same wells as the CC50 assay. The calcein-PBS solution in the 384-well cell culture plate was aspirated with a Biotek ELX405 plate washer. A volume of 20 μL of Dual-Glo luciferase buffer (Promega, Madison, WI) was added to each well of the plate with a Biotek μFlow Workstation. The plate was incubated for 10 min at room temperature. A volume of 20 μL of a solution containing a 1:100 mixture of Dual-Glo Stop & Glo substrate (Promega, Madison, WI) and Dual-Glo Stop & Glo buffer (Promega, Madison, WI) was added to each well of the plate with a Biotek μFlow Workstation. The plate was then incubated at room temperature for 10 min before the luminescence signal was measured with a Perkin-Elmer Envision Plate Reader.

The target of a further experiment is HCV Rep 2A. The experiment in a line: HCV Rep 2A EC50 (replicon luciferase). On the procedure:
as §1

For a further experiment, the system named is RSV strain A2. Description: microbe, parasite or virus in culture. Conditions: Table 3, HEp-2 cells, RSV A2, 4 days, read-out: RSV HEp-2 EC50. An outline of the steps: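 Cytopathic-effect protection assay: HEp-2 cells (50,000/mL) infected with pre-titered RSV A2 onto 3-fold serial compound dilutions, incubated 4 days at 37° C. Cell viability read by CellTiter-Glo luminescence; percent inhibition derived against 0% and 100% virus-inhibition controls.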

The test system of another experiment is RSV A2. The experiment in a line: RSV NHBE EC50 (RSV A2 antiviral assay in NHBE cells). To be noted: read-out: RSV NHBE EC50. An outline of the steps: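 Antiviral activity against RSV A2 was determined in NHBE cells used within 6 passages, with cell viability quantified by CellTiter-Glo after a 4-day infection.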
For a further experiment, the system named is HRV16. The experiment in a line: HRV16 HeLa EC50 (cytopathic effect in H1-HeLa cells). Conditions: read-out: HRV16 HeLa EC50. The procedure, abridged:
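H1-HeLa cells seeded one day before, given 3-fold serial compound dilutions in triplicate just prior to infection with pre-titrated virus. Incubated 96 h at 33 °C/5% CO2; protection from cytopathic effect read as viability by CellTiter-Glo luminescence, normalised to infected untreated (0%) and uninfected (100%) controls.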

For another experiment, the system named is DENV2 replicon. The experiment in a line: DENV-2 Huh-7 Rep EC50 (replicon luminescence). The procedure, abridged: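 Huh-7 cells carrying a DENV2 replicon, 5,000 cells/well, were incubated with dosed compounds for 48 h at 37° C. EnduRen live-cell substrate was added 1.5 h before luminescence reading. EC50 came from dose-response against DMSO-only wells.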

Experiment [1] has as its system Dengue serotype 2 New Guinea C (NGC) strain. Description: DENV-2 Huh-7 EC50 (qPCR in Huh7 cells). How it is done: Huh7 (Human hepatocarcinoma 7) cells were maintained in 10% FCS-containing DMEM complete media. On the day of the assay, cells were trypsinized (0.1% Trypsin-EDTA), washed and infected for 2 hours in serum-free DMEM with Dengue serotype 2 New Guinea C (NGC) strain at MOI=0.1 with gentle agitation at 37° C. After 2 hours, cells were washed with serum-free media and suspended in 10% FCS-containing DMEM (Gibco, supplemented with sodium pyruvate, NEAA, Penicillin-Streptomycin). 10^5 cells were plated in triplicate in 96-well plates with compounds dispensed at graded doses (Hewlett-Packard D300 Digital Dispenser). All wells were normalized to 0.25% DMSO. At 48 hours, cells were washed with 1×PBS and all supernatants removed. Total RNA was extracted using RNEasy 96 plates (Qiagen) and used to generate first-strand cDNA using XLT cDNA 5× Supermix (QuantaBio). cDNA was used as a template in a Taqman qPCR duplex reaction specific to DENV2 viral and GAPDH gene expression. EC50 values were determined using Prism Graphpad software, with normalization to a positive control and no compound negative control wells.

Experiment [2] relates to Dengue 2, New Guinea strain (NGC). The experiment in a line: DENV moDC EC50 (qPCR in human monocyte-derived dendritic cells). Conditions: Dengue virus, Dendritic cell; Table 3; human moDCs, 48 hours. On the procedure:
Human monocyte-derived dendritic cells (moDCs) were derived from CD14+ monocytes (AllCells) cultured in Human Mo-DC Differentiation medium containing GM-CSF and IL-4 (Miltenyi Biotec). On day 7, moDCs were harvested by mechanical disruption, washed and suspended in serum-free RPMI. moDCs were infected with Vero-derived Dengue 2, New Guinea strain (NGC) at a MOI=0.1 for two hours in serum-free RPMI with gentle agitation at 37° C. Cells were washed and resuspended in 10% serum-containing RPMI (Gibco, supplemented with sodium pyruvate, NEAA, Penicillin-Streptomycin). […] were plated in triplicate in 96-well plates with compounds dispensed at graded doses (Hewlett-Packard D300 Digital Dispenser). All wells were normalized to 0.25% DMSO. At 48 hours, cells were washed with 1×PBS and all supernatants removed. Total RNA was extracted using RNEasy 96 plates (Qiagen) and used to generate first-strand cDNA using XLT cDNA 5× Supermix (QuantaBio). cDNA was used as a template in a Taqman qPCR duplex reaction specific to DENV2 viral and GAPDH gene expression. EC50 values were determined using Prism Graphpad software, with normalization to a positive control and no compound negative control wells.

The mark [3] stands for this setting: Table 4, replicon cells, 3 days, read-out: HCV Rep 1B EC50.
Setting [4] is: Table 4, replicon cells, 3 days, read-out: HCV Rep 2A EC50.
Where [5] appears, read: Table 3, NHBE cells, RSV A2, 4 days.
Where [6] appears, read: human respiratory syncytial virus, NHBE, Table 5 comparative activity, 2',3'-OH vs -OC(O)iPr.
Where [7] appears, read: HeLa, Table 5 comparative activity, 2',3'-OH vs -OC(O)iPr.
[8] abbreviates: Dengue virus, Huh-7, Table 5 comparative activity, 2',3'-OH vs -OC(O)iPr, read-out: DENV Huh7 EC50.
The mark [9] stands for this setting: Table 3, Huh-7 DENV2 replicon cells, 48 hours, read-out: DENV-2 REP Huh7 EC50.
The mark [10] stands for this setting: human respiratory syncytial virus, NHBE, 96 h, Table 3, NHBE cells, RSV A2, 4 days.
[11] abbreviates: human respiratory syncytial virus, HEp-2, 96 h.

The structures appear in SMILES notation. Where two headings read alike, the source gives them in different places.

For the compound `CC(C)C(=O)O[C@H]1[C@H](c2ccc3c(N)ncnn23)O[C@](C#N)(COP(=O)(N[C@@H](C)C(=O)OC2COC2)Oc2ccccc2)[C@H]1OC(=O)C(C)C` (single isomer, unassigned) [Example 185], the EC50 amounted to 217 nM at HCV Rep 1B (setting [3]), 730 nM at HCV Rep 2A (setting [4]) and 26 nM with RSV strain A2.

As to `CC(C)C(=O)OC1C(c2ccc3c(N)ncnn23)OC(C#N)(COP(=O)(NC(C)C(=O)OC2CCN(C)C2)Oc2ccccc2)C1OC(=O)C(C)C` (single isomer, unassigned) [Example 234], the EC50 worked out at 30 nM with RSV A2 (setting [5]), 905 nM on HCV Rep 1B (setting [3]), 1820 nM on HCV Rep 2A (setting [4]) and 57 nM in the experiment on RSV strain A2.

In the case of `CCOC(=O)[C@H](C)N[P@](=O)(OC[C@@]1(C#N)O[C@@H](c2ccc3c(N)ncnn23)[C@H](O)[C@@H]1O)Oc1ccccc1` [Example 29, Ethyl ((S)-(((2R,3S,4R,5S)-5-(4-aminopyrrolo[2,1-f][1,2,4]triazin-7-yl)-2-cyano-3,4-dihydroxytetrahydrofuran-2-yl)methoxy)(phenoxy)phosphoryl)-L-alaninate], the EC50 with RSV A2 (setting [6]) stood at 932 nM; in the experiment with HRV16 (setting [7]) it was 678 nM; in the experiment on DENV2 replicon (Dengue virus, DENV2, Huh-7, read-out: DENV Rep EC50), 36100 nM; in experiment [1] (setting [8]), 1880 nM.

Turning to `COC(=O)[C@H](C)N[P@](=O)(OC[C@@]1(C#N)O[C@@H](c2ccc3c(N)ncnn23)[C@H](O)[C@@H]1O)Oc1ccccc1` [Example 52, methyl ((S)-(((2R,3S,4R,5S)-5-(4-aminopyrrolo[2,1-f][1,2,4]triazin-7-yl)-2-cyano-3,4-dihydroxytetrahydrofuran-2-yl)methoxy)(phenoxy)phosphoryl)-L-alaninate], the concentration for a half-maximal effect (EC50) in the experiment with RSV A2 (setting [6]) was found to be 252 nM; with HCV Rep 1B (Hepatitis C virus, Table 5 comparative activity, 2',3'-OH vs -OC(O)iPr, read-out: HCV Rep1B EC50) it was 3960 nM; with HCV Rep 2A (Hepatitis C virus, Table 5 comparative activity, 2',3'-OH vs -OC(O)iPr, read-out: HCV Rep2A EC50) it was 7460 nM; in the experiment on HRV16 (setting [7]), 1250 nM; in experiment [1] (setting [8]), 5480 nM.

For `CCC(=O)O[C@H]1[C@H](c2ccc3c(N)ncnn23)O[C@](C#N)(CO[P@](=O)(N[C@@H](C)C(=O)OCC2CC2)Oc2ccccc2)[C@H]1OC(=O)CC` [Example 100], the concentration for a half-maximal effect (EC50) with RSV A2 (setting [5]) amounted to 13 nM; in the experiment with HRV16 (Table 3, H1-HeLa cells, 96 h), 147 nM; in the experiment on RSV strain A2, 58 nM; in the experiment on DENV2 replicon (setting [9]) it was 18800 nM; in experiment [1] (Table 3, Huh7 cells, 48 hours, read-out: DENV-2 Huh7 EC50), 1130 nM.

Regarding `CCC(=O)O[C@H]1[C@H](c2ccc3c(N)ncnn23)O[C@](C#N)(COP(=O)(N[C@@H](C)C(=O)OCC2CCC2)N[C@@H](C)C(=O)OCC2CCC2)[C@H]1OC(=O)CC` [Example 125, ((2R,3S,4R,5S)-5-(4-aminopyrrolo[2,1-f][1,2,4]triazin-7-yl)-2-cyano-3,4-dipropionatetetrahydrofuran-2-yl)methyl bis-cyclobutylmethyl L-alaninate phosphate], the EC50 in the experiment with RSV A2 (setting [10]) worked out at 79 nM; with HRV16 (96 h, Table 3, H1-HeLa cells, 96 h), 2030 nM; in the experiment with RSV strain A2 (setting [11]), 700 nM; in the experiment on DENV2 replicon (Dengue virus, DENV2, Huh-7, 48 h, read-out: DENV-2 REP Huh7 EC50, Table 3, Huh-7 DENV2 replicon cells, 48 hours), 48700 nM; in experiment [2], 20700 nM.

In the case of `C/C(=N\c1ncnn2c([C@@H]3O[C@](C#N)(COP(=O)(N[C@@H](C)C(=O)OC4CCOCC4)Oc4ccccc4)[C@@H](OC(=O)C(C)C)[C@H]3OC(=O)C(C)C)ccc12)N(C)C` (stereo partly drawn) [Example 219, (2R,3S,4S,5S)-2-cyano-5-(4-(((E)-1-(dimethylamino)ethylidene)amino)pyrrolo[2,1-f][1,2,4]triazin-7-yl)-2-((((((S)-1-oxo-1-((tetrahydro-2H-pyran-4-yl)oxy)propan-2-yl)amino)(phenoxy)phosphoryl)oxy)methyl) tetrahydrofuran-3,4-diyl bis(2-methylpropanoate)], the 50% effective concentration (EC50) with RSV A2 (setting [5]) was 82 nM; with HRV16 (Table 3, H1-HeLa cells, 96 h), 356 nM; in the experiment on RSV strain A2, 67 nM; in the experiment on DENV2 replicon (setting [9]), 16400 nM.

As to `COC(=O)[C@H](C)N[P@](=O)(OC[C@@]1(C#N)O[C@@H](c2ccc3c(/N=C/N4CCN(C)CC4)ncnn23)[C@H](OC(=O)C(C)C)[C@@H]1OC(=O)C(C)C)Oc1ccccc1` [Example 261, (2R,3S,4S,5S)-2-cyano-2-((((S)-(((S)-1-methoxy-1-oxopropan-2-yl)amino)(phenoxy)phosphoryl)oxy)methyl)-5-(4-(((E)-(4-methylpiperazin-1-yl)methylene)amino)pyrrolo[2,1-f][1,2,4]triazin-7-yl)tetrahydrofuran-3,4-diyl bis(2-methylpropanoate)], the EC50 in the experiment with RSV A2 (setting [10]) stood at 13 nM; in the experiment on HCV Rep 1B (Hepatitis C virus, 72 h, Table 4, replicon cells, 3 days, read-out: HCV Rep 1B EC50), 524 nM; with HCV Rep 2A (Hepatitis C virus, 72 h, Table 4, replicon cells, 3 days, read-out: HCV Rep 2A EC50), 1220 nM; in the experiment on RSV strain A2 (setting [11]), 42 nM; in the experiment with DENV2 replicon (Dengue virus, DENV2, Huh-7, 48 h, read-out: DENV-2 REP Huh7 EC50) it was 2340 nM.
